We go through ten compounds from patent US8889671B2, “Compounds and methods for treating bacterial infections” (AstraZeneca AB, priority 2013, dated 2014).

Assay [1] addresses Escherichia coli DNA gyrase A/B tetramer (Escherichia coli (strain K12), UniProt P0AES4+P0AES6). Briefly: DNA gyrase supercoiling activity fluorescence polarisation assay. Format: biochemical. Conditions: Eco Gyr FP Mean IC50, E. coli DNA gyrase supercoiling, 0.3 mM ATP. The method in brief:
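Relaxed triplex-forming plasmid (130 micrograms/mL) supercoiled by 5 nM gyrase A/B tetramer in Tris-HCl pH 7.5 buffer with 4 mM MgCl2 and 0.3 mM ATP, ~30 min, ambient temperature. Quenched with 5′-BODIPY-FL triplex probe at pH 3.5; fluorescence anisotropy read after 60 min. IC50 by nonlinear regression against two control reactions.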

The test system of assay [2] is Haemophilus influenzae. Briefly: Susceptibility testing (MIC) Assay 2, broth microdilution. It counts as cell-based. A general note: In broth dilution the organism is exposed to a series of concentrations in liquid medium.
For assay [3], the system named is Pseudomonas aeruginosa. The assay is described as above. It counts as cell-based. Conditions: PAO1, read-out: Pae MIC.
Assay [4] relates to Escherichia coli. The assay is described as above. It counts as cell-based.
Assay [5] has as its system Klebsiella pneumoniae. Described as above. Format: cell-based.
The test system of assay [6] is Streptococcus pneumoniae. Nature of the assay: Susceptibility testing (MIC) Assay 1, broth microdilution. It counts as cell-based.
The subject of assay [7] is Streptococcus pyogenes. Described as above. It counts as cell-based. The conditions noted are these: Streptococcus pyogenes, in vivo strain, read-out: Spy MIC.
The test system of assay [8] is Staphylococcus aureus. The description is as above. Format: cell-based. The conditions noted are these: Staphylococcus aureus.
The mark [9] stands for this setting: ATCC51907, Haemophilus influenzae, ATCC 51907, in vivo strain, read-out: Hin MIC.
Where [10] appears, read: clinical isolate, mucoid, read-out: Kpn MIC.
Setting [11] is: in vivo strain (footnote b), read-out: Spn(b) MIC.
Where [12] appears, read: in vivo strain (footnote c), read-out: Spn(c) MIC.
Setting [13] is: Staphylococcus aureus in vivo strain, MSQS, read-out: Sau(d) MIC.
[14] abbreviates: in vivo strain, MRQR, read-out: Sau(e) MIC.

Read-outs that look alike come from different tables or passages of the source.

For `C[C@@H]1CN2c3c(cc4c(N5C[C@H](C=NO)OC5=O)noc4c3F)CC3(C(=O)NC(=O)NC3=O)[C@H]2[C@H](C)O1` [Example 40, (2R,4S,4aS)-11-Fluoro-8-{(5R)-5-[(hydroxyimino)methyl]-2-oxo-1,3-oxazolidin-3-yl}-2,4-dimethyl-1,2,4,4a-tetrahydro-2′H,6H-spiro[1,4-oxazino[4,3a][1,2]oxazolo[4,5-g]quinoline-5,5′-pyrimidine]-2′,4′,6′(1′H,3′H)-trione], the midpoint of inhibition in assay [1], the IC50, lay at 380 nM. Moreover, the MIC was 0.39 µM in assay [2] (setting [9]); over 200 µM in assay [3]; 12 µM in assay [4] (K12, read-out: Eco MIC); over 200 µM in assay [5] (setting [10]); 0.39 µM in assay [6] (setting [11]); 0.78 µM in assay [6] (setting [12]). Further, the MIC was 0.28 µM in assay [7] (Streptococcus pyrgenes); 0.78 µM in assay [8] (setting [13]); 3.1 µM in assay [8] (setting [14]); 1.6 µM in assay [8] (serum, read-out: Sau(f) MIC).
For the compound `C[C@@H]1CN(c2noc3c(Cl)c4c(cc23)CC2(C(=O)NC(=O)NC2=O)[C@H]2[C@H](C)O[C@H](C)CN42)C(=O)O1` [Example 22], 210 nM corresponded to half-maximal inhibition in assay [1] (IC50). For the same compound, the MIC in assay [2] (setting [9]) was 0.78 µM; in assay [3] it was over 200 µM; in assay [4] (K12, read-out: Eco MIC) it was 12 µM; in assay [5] (setting [10]), 200 µM; in assay [6] (setting [11]), 0.39 µM; in assay [6] (setting [12]) it was 0.39 µM. For the same compound, the MIC is 0.39 µM in assay [7] (Streptococcus pyrgenes); under 0.2 µM in assay [8] (setting [13]); 0.78 µM in assay [8] (setting [14]); 0.78 µM in assay [8] (serum, read-out: Sau(f) MIC).
`C[C@@H]1CN2c3c(cc4c(N5C(=O)OC[C@@H]5[C@@H](C)O)noc4c3F)CC3(C(=O)NC(=O)NC3=O)[C@H]2[C@H](C)O1` [Example 77]: the midpoint of inhibition in assay [1], the IC50, lay at 530 nM. For the same compound, the MIC is 0.78 µM in assay [2] (setting [9]); over 200 µM in assay [3]; 200 µM in assay [4] (K12, read-out: Eco MIC); over 200 µM in assay [5] (setting [10]); 0.78 µM in assay [6] (setting [11]); 0.78 µM in assay [6] (setting [12]). Besides, the MIC in assay [7] (Streptococcus pyrgenes) is 0.78 µM; in assay [8] (setting [13]), 3.1 µM; in assay [8] (setting [14]) it was 12 µM; in assay [8] (serum, read-out: Sau(f) MIC), 6.2 µM.
Take `C[C@@H]1CN2c3c(cc4c(N5C(=O)OC[C@@H]5C#N)noc4c3F)CC3(C(=O)NC(=O)NC3=O)[C@H]2[C@H](C)O1` [Example 41, (4S)-3-[(2R,4S,4aS)-11-Fluoro-2,4-dimethyl-2′,4′,6′-trioxo-1,1′,2,3′,4,4′,4a,6′-octahydro-2′H,6H-spiro[1,4-oxazino[4,3-a][1,2]oxazolo[4,5-g]quinoline-5,5′-pyrimidin]-8-yl]-2-oxo-1,3-oxazolidine-4-carbonitrile]: the IC50 (usually the concentration at which inhibition is half-maximal) in assay [1] worked out at 460 nM. Moreover, the MIC in assay [2] (setting [9]) is 0.78 µM; in assay [3], over 200 µM; in assay [4] (K12, read-out: Eco MIC), 25 µM; in assay [5] (setting [10]) it was over 200 µM; in assay [6] (setting [11]) it was 0.39 µM; in assay [6] (setting [12]) it was 0.78 µM. The MIC worked out at 0.78 µM in assay [7] (Streptococcus pyrgenes); 0.78 µM in assay [8] (setting [13]); 1.6 µM in assay [8] (setting [14]); 1.6 µM in assay [8] (serum, read-out: Sau(f) MIC).
As to `C[C@@H]1CN2c3c(cc4c(N5C[C@@H](c6ccccn6)OC5=O)noc4c3F)CC3(C(=O)NC(=O)NC3=O)[C@H]2[C@H](C)O1` [Example 54, (2R,4S,4aS)-11-fluoro-2,4-dimethyl-8-((S)-2-oxo-5-(pyridin-2-yl)oxazolidin-3-yl)-2,4,4a,6-tetrahydro-1H,1′H-spiro[isoxazolo[4,5-g][1,4]oxazino[4,3-a]quinoline-5,5′-pyrimidine]-2′,4′,6′(3′H)-trione], the midpoint of inhibition in assay [1], the IC50, lay at 940 nM. For the same compound, the MIC in assay [2] (setting [9]) was 3.1 µM; in assay [3], over 200 µM; in assay [4] (K12, read-out: Eco MIC) it was 100 µM; in assay [5] (setting [10]), over 200 µM; in assay [6] (setting [11]) it was 0.78 µM; in assay [6] (setting [12]) it was 0.78 µM. In addition, the MIC in assay [7] (Streptococcus pyrgenes) was found to be 0.78 µM; in assay [8] (setting [13]), 0.39 µM; in assay [8] (setting [14]) it was 0.78 µM; in assay [8] (serum, read-out: Sau(f) MIC) it was 1.6 µM.
As to `C[C@@H]1CN2c3c(cc4c(N5C(=O)OC[C@H]5CF)noc4c3F)CC3(C(=O)NC(=O)NC3=O)[C@H]2[C@H](C)O1` [Example 16, (2R,4S,4aS)-11-Fluoro-8-[(4S)-4-(fluoromethyl)-2-oxo-1,3-oxazolidin-3-yl]-2,4-dimethyl-1,2,4,4a-tetrahydro-2′H,6H-spiro[1,4-oxazino[4,3-a][1,2]oxazolo[4,5-g]quinoline-5,5′-pyrimidine]-2′,4′,6′(1′H,3′H)-trione], the half-maximal inhibitory concentration (IC50) in assay [1] is 190 nM. Also, the MIC is 0.78 µM in assay [2] (setting [9]); over 200 µM in assay [3]; 25 µM in assay [4] (K12, read-out: Eco MIC); 200 µM in assay [5] (setting [10]); 0.39 µM in assay [6] (setting [11]); 0.39 µM in assay [6] (setting [12]). For the same compound, the MIC in assay [7] (Streptococcus pyrgenes) turned out to be 0.39 µM; in assay [8] (setting [13]), 0.39 µM; in assay [8] (setting [14]), 1.6 µM; in assay [8] (serum, read-out: Sau(f) MIC), 1.6 µM.
For `COC[C@@H]1[C@@H](C)OC(=O)N1c1noc2c(F)c3c(cc12)CC1(C(=O)NC(=O)NC1=O)[C@H]1[C@H](C)O[C@H](C)CN31` [Example 80, (2R,4S,4aS)-11-fluoro-8-((4R,5R)-4-(methoxymethyl)-5-methyl-2-oxooxazolidin-3-yl)-2,4-dimethyl-2,4,4a,6-tetrahydro-1H,1′H-spiro[isoxazolo[4,5-g][1,4]oxazino[4,3-a]quinoline-5,5′-pyrimidine]-2′,4′,6′(3′H)-trione], it took 170 nM to reach half-maximal inhibition in assay [1] (IC50). In addition, the MIC was 1 µg/mL in assay [2] (ATCC49247, Haemophilus influenzae, ATCC 49247, read-out: Hin MIC); over 64 µg/mL in assay [3] (Pseudomonoas aeruginosa); over 64 µg/mL in assay [4] (ATCC25922, Escherichia coli, in vivo strain, ATCC 25922, read-out: Eco(b) MIC); over 64 µg/mL in assay [4] (ATCC35218, Escherichia coli, ATCC 35218, read-out: Eco(c) MIC); over 64 µg/mL in assay [5] (ATCC700603, ATCC 700603, read-out: Kpn(e) MIC); over 64 µg/mL in assay [5] (clinical isolate, mucoid, read-out: Kpn(d) MIC). In addition, the MIC in assay [6] (ATCC49619, Streptococcus pneumoniae, ATCC 49619, read-out: Spn(c) MIC) turned out to be 32 µg/mL; in assay [6] (in vivo strain, read-out: Spn(b) MIC), 64 µg/mL; in assay [7] (Streptococcus pyrogenes), 16 µg/mL; in assay [8] (ATCC29213, Staphylococcus aureus, in vivo strain, ATCC 29213, read-out: Sau(d) MIC), 16 µg/mL; in assay [8] (MRSA, in vivo strain, MRSA, read-out: Sau(f) MIC), 16 µg/mL; in assay [8] (setting [14]) it was 32 µg/mL.
`C[C@@H]1CN2c3c(cc4c(N5C(=O)OC[C@@H]5c5cnccn5)noc4c3F)CC3(C(=O)NC(=O)NC3=O)[C@H]2[C@H](C)O1` [Example 62, (2R,4S,4aS)-11-fluoro-2,4-dimethyl-8-((S)-2-oxo-4-(pyrazin-2-yl)oxazolidin-3-yl)-2,4,4a,6-tetrahydro-1H,1′H-spiro[isoxazolo[4,5-g][1,4]oxazino[4,3-a]quinoline-5,5′-pyrimidine]-2′,4′,6′(3′H)-trione] had an IC50 in assay [1] of 1400 nM. For the same compound, the MIC in assay [2] (setting [9]) is 3.1 µM; in assay [3], over 200 µM; in assay [4] (K12, read-out: Eco MIC), over 200 µM; in assay [5] (setting [10]), over 200 µM; in assay [6] (setting [11]) it was 6.2 µM; in assay [6] (setting [12]), 3.1 µM. Besides, the MIC was 3.1 µM in assay [7] (Streptococcus pyrgenes); 3.1 µM in assay [8] (setting [13]); 6.2 µM in assay [8] (setting [14]); 6.2 µM in assay [8] (serum, read-out: Sau(f) MIC).
`C[C@@H]1CN2c3c(cc4c(N5C(=O)OC[C@@H]5CCO)noc4c3F)CC3(C(=O)NC(=O)NC3=O)[C@H]2[C@H](C)O1` [Example 31, (2R,4S,4aS)-11-Fluoro-8-((S)-4-(2-hydroxyethyl)-2-oxooxazolidin-3-yl)-2,4-dimethyl-2,4,4a,6-tetrahydro-1H,1′H-spiro[isoxazolo[4,5-g][1,4]oxazino[4,3-a]quinoline-5,5′-pyrimidine]-2′,4′,6′(3′H)-trione] had an IC50 in assay [1] of 420 nM. Further, the MIC in assay [2] (setting [9]) was 0.39 µM; in assay [3] it was over 200 µM; in assay [4] (K12, read-out: Eco MIC), 100 µM; in assay [5] (setting [10]), over 200 µM; in assay [6] (setting [11]), 0.78 µM; in assay [6] (setting [12]), 0.78 µM. Also, the MIC in assay [7] (Streptococcus pyrgenes) turned out to be 0.39 µM; in assay [8] (setting [13]) it was 3.1 µM; in assay [8] (setting [14]), 12 µM; in assay [8] (serum, read-out: Sau(f) MIC), 3.1 µM.
The compound `C[C@@H]1CN2c3c(cc4c(N5C(=O)OC[C@H]5c5ccncc5)noc4c3F)CC3(C(=O)NC(=O)NC3=O)[C@H]2[C@H](C)O1` [Example 57, (2R,4S,4aS)-11-Fluoro-2,4-dimethyl-8-((R)-2-oxo-4-(pyridin-4-yl)oxazolidin-3-yl)-2,4,4a,6-tetrahydro-1H,1′H-spiro[isoxazolo[4,5-g][1,4]oxazino[4,3-a]quinoline-5,5′-pyrimidine]-2′,4′,6′(3′H)-trione] showed a 50% inhibitory concentration (IC50) in assay [1] of 760 nM. Further, the MIC was 0.39 µM in assay [2] (setting [9]); over 200 µM in assay [3]; 100 µM in assay [4] (K12, read-out: Eco MIC); over 200 µM in assay [5] (setting [10]); 0.78 µM in assay [6] (setting [11]); 1.6 µM in assay [6] (setting [12]). The MIC worked out at 0.78 µM in assay [7] (Streptococcus pyrgenes); 1.6 µM in assay [8] (setting [13]); 6.2 µM in assay [8] (setting [14]); 3.1 µM in assay [8] (serum, read-out: Sau(f) MIC).
